The target in assay [1] is T1, High affinity choline transporter 1 (Homo sapiens, UniProt Q9GZV3).
T1 sequence (Q9GZV3 whole entry): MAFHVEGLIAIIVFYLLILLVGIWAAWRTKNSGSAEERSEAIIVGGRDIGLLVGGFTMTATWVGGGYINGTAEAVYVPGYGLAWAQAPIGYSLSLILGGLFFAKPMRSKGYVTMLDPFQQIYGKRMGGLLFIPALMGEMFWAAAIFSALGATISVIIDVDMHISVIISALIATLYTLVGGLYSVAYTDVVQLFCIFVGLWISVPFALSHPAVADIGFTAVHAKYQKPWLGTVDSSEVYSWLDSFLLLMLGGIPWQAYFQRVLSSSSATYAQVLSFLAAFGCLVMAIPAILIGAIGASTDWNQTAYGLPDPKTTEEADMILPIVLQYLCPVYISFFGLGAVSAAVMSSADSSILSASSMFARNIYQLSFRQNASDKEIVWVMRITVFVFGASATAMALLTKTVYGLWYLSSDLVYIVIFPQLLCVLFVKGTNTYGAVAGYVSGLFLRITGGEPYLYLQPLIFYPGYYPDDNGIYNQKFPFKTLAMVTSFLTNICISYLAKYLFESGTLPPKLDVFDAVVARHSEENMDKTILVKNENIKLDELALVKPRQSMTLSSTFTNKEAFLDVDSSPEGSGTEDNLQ
As to the kind of experiment: CHT inhibitors, dose response, cell-based, 5-point CRC, membrane potential dye (AID 504840). Type of assay: functional.

The nature of assay [2]: Luminescence Cell-Based Dose Response HTS to Identify Activators of Luciferase Translation or Activity in H4 […] Cells. [Related pubchem assays: 1829 (Project Summary), 1814 (Primary HTS)]. Type of assay: functional.
Assay [3] in a line: Luminescence Cell-Based Dose Confirmation HTS to Identify Activators of 5'UTR Stem-Loop Driven Alpha-Synuclein mRNA Translation in H4 Neuroglioblastoma Cells. [Related pubchem assays: 1829 (Project Summary), 1814 (Primary HTS)]. Type of assay: functional.
Assay [4] has as its system H4. As to the kind of experiment: Luminescence Cell-Based Dose Response HTS to Identify Activators of 5'UTR Stem-Loop Driven Prion Protein mRNA Translation in H4 Neuroglioblastoma Cells. [Related pubchem assays: 1829 (Project Summary), 1814 (Primary HTS)]. The settings on record: Homo sapiens. Type of assay: functional.
Assay [5] addresses Cytochrome P450 2C19 (Homo sapiens, UniProt P33261). The assay is described as follows: Cytochrome panel assay with activity outcomes. Panel member name: p450-cyp2c19 Compounds with AC50 equal or less than 10 uM are considered active. Type of assay: functional. The settings on record: read-out: AC50.
Assay [6] deals with Cytochrome P450 2C9 (Homo sapiens, UniProt P11712).
Sequence of Cytochrome P450 2C9 (P11712 whole entry): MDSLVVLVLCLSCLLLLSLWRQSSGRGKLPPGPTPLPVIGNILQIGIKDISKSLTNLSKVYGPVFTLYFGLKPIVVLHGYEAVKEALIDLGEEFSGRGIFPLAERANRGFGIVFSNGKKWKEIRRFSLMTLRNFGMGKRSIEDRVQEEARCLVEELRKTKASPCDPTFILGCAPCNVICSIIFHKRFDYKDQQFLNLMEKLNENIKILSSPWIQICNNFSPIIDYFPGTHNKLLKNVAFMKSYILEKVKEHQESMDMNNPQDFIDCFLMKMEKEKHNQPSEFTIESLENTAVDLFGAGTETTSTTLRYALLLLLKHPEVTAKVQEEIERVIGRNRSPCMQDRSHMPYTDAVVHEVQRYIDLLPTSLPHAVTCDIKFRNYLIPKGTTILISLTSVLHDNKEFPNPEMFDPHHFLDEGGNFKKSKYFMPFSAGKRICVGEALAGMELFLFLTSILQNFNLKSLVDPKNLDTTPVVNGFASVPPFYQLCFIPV
In assay [7] the target is T2, Cytochrome P450 1A2 (Homo sapiens, UniProt P05177).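 Further: PubChem cytochrome P450 panel assay, CYP1A2 panel member.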
T2 sequence (P05177 whole entry): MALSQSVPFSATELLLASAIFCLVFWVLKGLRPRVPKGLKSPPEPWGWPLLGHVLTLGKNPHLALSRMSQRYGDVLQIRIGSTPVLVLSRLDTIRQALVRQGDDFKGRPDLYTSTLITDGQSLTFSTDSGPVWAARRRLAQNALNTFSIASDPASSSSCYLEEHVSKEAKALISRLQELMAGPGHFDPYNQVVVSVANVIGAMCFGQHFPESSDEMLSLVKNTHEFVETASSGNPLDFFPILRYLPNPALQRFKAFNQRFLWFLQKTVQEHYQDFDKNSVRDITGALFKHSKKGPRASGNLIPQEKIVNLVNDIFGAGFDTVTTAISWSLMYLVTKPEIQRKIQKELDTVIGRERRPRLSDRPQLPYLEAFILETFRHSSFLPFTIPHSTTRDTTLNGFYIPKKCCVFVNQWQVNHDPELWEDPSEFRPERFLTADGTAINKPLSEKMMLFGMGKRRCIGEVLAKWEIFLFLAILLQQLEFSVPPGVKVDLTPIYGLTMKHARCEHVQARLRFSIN

The target in assay [8] is Cytochrome P450 2D6 (Homo sapiens, UniProt P10635).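 Further: CYP2D6 member of a cytochrome P450 panel assay.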
Sequence of Cytochrome P450 2D6 (P10635 whole entry): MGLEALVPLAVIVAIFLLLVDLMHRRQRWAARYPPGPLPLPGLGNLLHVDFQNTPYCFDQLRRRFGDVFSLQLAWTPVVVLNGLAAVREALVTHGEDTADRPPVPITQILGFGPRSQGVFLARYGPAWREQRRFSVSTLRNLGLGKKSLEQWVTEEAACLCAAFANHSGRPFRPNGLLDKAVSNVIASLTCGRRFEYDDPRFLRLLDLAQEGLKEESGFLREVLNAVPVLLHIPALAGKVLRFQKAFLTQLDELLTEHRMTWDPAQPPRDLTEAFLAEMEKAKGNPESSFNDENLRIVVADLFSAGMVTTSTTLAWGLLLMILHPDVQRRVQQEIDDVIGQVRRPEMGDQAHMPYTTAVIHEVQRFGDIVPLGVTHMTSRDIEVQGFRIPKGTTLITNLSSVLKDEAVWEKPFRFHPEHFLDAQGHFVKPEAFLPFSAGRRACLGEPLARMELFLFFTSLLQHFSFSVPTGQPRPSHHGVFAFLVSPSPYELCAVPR
Assay [9] concerns the target T3, Polyadenylate-binding protein 1 (Homo sapiens, UniProt P11940). The assay is described as follows: PABP1 MLLE–PAM2 binding inhibitor potency, dose response, biochemical, fluorescence polarization, FITC-PAM2 peptide (AID 602259). The settings on record: read-out: IC50_Mean. It counts as functional.
For assay [10], the target named is T3, Polyadenylate-binding protein 1. As to the kind of experiment: PABP1 MLLE–PAM2 interaction inhibitors, dose response, miRNA deadenylation inhibitor project, biochemical, fluorescence polarization, Cy5-PAM2 peptide, secondary (AID 602260). It counts as functional. The note with it: read-out: IC50_Mean. A general note: Polarisation of emitted light reports the rotation of a fluorescent probe.

Assay [11] deals with Cytochrome P450 3A4 (Homo sapiens, UniProt P08684).
Sequence of Cytochrome P450 3A4 (P08684 whole entry): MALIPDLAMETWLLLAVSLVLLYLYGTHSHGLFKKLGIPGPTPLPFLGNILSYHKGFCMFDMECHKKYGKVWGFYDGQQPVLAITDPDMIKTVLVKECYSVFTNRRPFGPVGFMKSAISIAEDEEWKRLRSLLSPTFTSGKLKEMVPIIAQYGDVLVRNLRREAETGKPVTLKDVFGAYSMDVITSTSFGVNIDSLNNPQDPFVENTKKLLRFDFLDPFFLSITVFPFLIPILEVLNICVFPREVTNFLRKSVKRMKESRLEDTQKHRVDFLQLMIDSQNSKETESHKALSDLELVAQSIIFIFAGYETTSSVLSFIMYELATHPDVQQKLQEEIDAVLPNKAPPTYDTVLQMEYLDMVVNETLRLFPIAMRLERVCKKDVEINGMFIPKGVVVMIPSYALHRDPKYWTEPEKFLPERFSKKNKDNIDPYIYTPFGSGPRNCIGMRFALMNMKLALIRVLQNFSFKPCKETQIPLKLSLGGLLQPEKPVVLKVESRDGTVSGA
The subject of assay [12] is P388. The assay is described as follows: cells. It counts as functional. The note with it: Mus musculus.
For assay [13], the system named is P388/ADR. The assay is described as follows: cells. Type of assay: functional. The settings on record: Mus musculus.
The subject of assay [14] is SN12K1. As to the kind of experiment: cells. It counts as functional. The note with it: Homo sapiens.

Structures are written as SMILES. “And” between values parts separate entries of the source, which are not always exact repeats. Equal values may be shown once. Where a name gives a salt, the structure may show the parent alone. The source made the active and inactive calls. Bounds are passed on as bounds.

A word on the EC50: it is the midpoint of the concentration-response curve. A word on the AC50: it is the midpoint of the concentration-response curve, whichever way the signal moves. By GI50 is commonly meant the concentration that inhibits growth by half.

Sequence of Cytochrome P450 2C19 (P33261 whole entry): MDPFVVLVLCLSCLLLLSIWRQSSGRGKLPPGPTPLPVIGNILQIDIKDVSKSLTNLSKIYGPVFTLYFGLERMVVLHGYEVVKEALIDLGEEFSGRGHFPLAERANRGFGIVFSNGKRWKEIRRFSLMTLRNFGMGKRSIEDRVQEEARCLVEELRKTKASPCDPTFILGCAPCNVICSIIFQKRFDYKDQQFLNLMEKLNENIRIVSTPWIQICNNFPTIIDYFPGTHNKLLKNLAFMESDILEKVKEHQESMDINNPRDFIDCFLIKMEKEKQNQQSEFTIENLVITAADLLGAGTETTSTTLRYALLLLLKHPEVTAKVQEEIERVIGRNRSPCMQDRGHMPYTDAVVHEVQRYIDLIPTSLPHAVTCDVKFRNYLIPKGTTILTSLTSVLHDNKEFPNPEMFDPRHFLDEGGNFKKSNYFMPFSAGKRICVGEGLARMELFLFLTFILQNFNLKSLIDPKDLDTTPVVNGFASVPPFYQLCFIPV
T3 sequence (P11940 whole entry): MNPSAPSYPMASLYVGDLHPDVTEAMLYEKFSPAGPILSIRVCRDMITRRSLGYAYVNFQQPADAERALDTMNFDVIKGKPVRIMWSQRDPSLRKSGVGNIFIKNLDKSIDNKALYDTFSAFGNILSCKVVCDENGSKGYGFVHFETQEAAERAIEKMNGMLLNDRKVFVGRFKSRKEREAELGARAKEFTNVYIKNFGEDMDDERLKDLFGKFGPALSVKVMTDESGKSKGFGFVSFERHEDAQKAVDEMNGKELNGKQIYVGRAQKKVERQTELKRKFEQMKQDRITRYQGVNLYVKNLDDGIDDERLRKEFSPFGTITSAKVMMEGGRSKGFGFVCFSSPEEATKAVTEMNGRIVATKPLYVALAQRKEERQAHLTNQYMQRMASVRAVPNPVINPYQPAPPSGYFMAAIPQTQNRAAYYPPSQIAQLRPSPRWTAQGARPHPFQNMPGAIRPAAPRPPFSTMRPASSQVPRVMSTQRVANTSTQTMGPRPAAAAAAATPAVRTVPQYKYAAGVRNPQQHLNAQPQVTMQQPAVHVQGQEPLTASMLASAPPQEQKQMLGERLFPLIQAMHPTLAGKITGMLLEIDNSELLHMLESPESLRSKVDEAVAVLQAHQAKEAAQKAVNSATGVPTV

`O=C(CN1C(=O)NC2(CCCc3ccccc32)C1=O)N1CCc2ccccc2C1` (stereo not drawn): in assay [1], the IC50 was 13.5 µM (active).
With `CCOC(=O)C1CCN(c2c(Nc3ccc4c(c3)OCCO4)c(=O)c2=O)CC1`, the 50% effective concentration (EC50) in [2] is 18 µM (active); in assay [3] it was 18.9 µM (active); in assay [4], 9.87 µM (active).
`CCn1c(Cc2ccccc2)nnc1SCC(=O)NC(C)(C)C`: the half-maximal activity concentration (AC50) is 14.1 µM (inconclusive) in assay [5] and 12.6 µM (inconclusive) in assay [6].
As to `CCCCCC1CCC(C(=O)NN=C(S)NCC)CC1` (stereo not drawn), the AC50 in [7] was 12.6 µM (inconclusive); in [8] it was 15.8 µM (inconclusive); in [6], 1.78 µM (inconclusive).
Turning to `O=C(C[n+]1cccc2ccccc21)c1ccc(Br)cc1`, the IC50 in assay [1] was 13.2 µM (active).
In the case of `CN(Cc1ccccc1)S(=O)(=O)c1ccc(NC(=S)NC(=O)C(C)(C)C)cc1`, the IC50 in assay [9] and in assay [10] was > 66 µM (inactive) in each case.
With `COc1ccc(CNc2nc(-c3cccc(C#N)c3)nc3ccccc23)c(OC)c1`, the AC50 was 1.58 µM (inconclusive) in assay [5], 3.98 µM (inconclusive) in [8] and 1 µM (inconclusive) in assay [6].
Turning to `O=C1CN=C(Nc2ccc(Cl)cc2)N1c1ccccc1`, the half-maximal activity concentration (AC50) was 14.1 µM (inconclusive) in assay [11], 14.1 µM (inconclusive) in assay [7], 20 µM (inconclusive) in [8] and 0.00562 µM (inconclusive) in assay [6].
`NC(=O)CN1CCN(c2nc(-c3ccc(F)cc3)cs2)CC1`: the AC50 was 14.1 µM (inconclusive) in assay [11] and 6.31 µM (inconclusive) in assay [6].
As for `CC(C)NCCCOc1ccc(Cl)cc1Br`, in assay [6], the AC50 was 4.47 µM (inconclusive).
In the case of `O=C(COc1ccccc1-c1ccccc1)NNC(=O)NC1CCCCC1`, the IC50 in [1] was 15.8 µM (active). In addition, the EC50 in assay [2], in assay [3] and in assay [4] was > 120 µM (not active) in each case.
`COCCn1c(=O)c(-c2cc(F)cc(F)c2)nc2cnc(Oc3ccccc3)nc21`: the AC50 was 20 µM (inconclusive) in assay [11], 39.8 µM (inconclusive) in assay [5] and 20 µM (inconclusive) in assay [6].
Regarding `C=CCSc1nc2c(c(=O)[nH]c(=O)n2C)n1C(C)C`, the IC50 in assay [9] and in assay [10] was > 66 µM (inactive) throughout.
In the case of `O=C(NC(=S)N1C[C@H]2C[C@H](C1)c1cccc(=O)n1C2)c1ccc(Cl)cc1`, the IC50 in assay [9] and in assay [10] was > 66 µM (inactive) in each case.
Regarding `CCC(=O)Nc1ccc(Cl)c(NC(=S)NC(=O)COc2ccccc2)c1`, the IC50 in [9] and in assay [10] was > 66 µM (inactive) each time.
As for `COC(=O)c1cc(OC)c(OC)cc1NC(=O)CSc1ccc(C)cc1`, the AC50 in assay [6] was 7.94 µM (inconclusive).
For `COc1cccc(NC(=O)CCC(=O)Nc2ccc3nc(N4CCOCC4)cc(C)c3c2)c1`, the EC50 in [2], in assay [3] and in assay [4] was > 120 µM (not active) in each case.
Regarding `Cc1cc(C)c[n+](-c2[n-]c(=O)sc2C=NNC(=O)c2cccnc2)c1`, the IC50 in [9] is 59.7 µM (inactive); in [10], > 66 µM (inactive).
With `CN(Cc1ccc(Cl)cc1)C(=O)COC(=O)CSc1ccc([N+](=O)[O-])cc1`, the IC50 in assay [9] and in assay [10] was > 66 µM (inactive) each time.
As for `CC1CCCCC1NC(=O)Cn1nnc(-c2ccc(Cl)cc2)n1` (stereo not drawn), the IC50 in assay [1] is 6.61 µM (active).
With `CCNc1ncc2nc(-c3cccs3)c(=O)n(CCC#N)c2n1`, the AC50 in [6] is 12.6 µM (inconclusive).
Regarding `NC(=S)Nc1ccc(S(=O)(=O)c2ccc(NC(N)=S)cc2)cc1`, the IC50 in assay [9] and in [10] was > 66 µM (inactive) each time.
As for `CCOc1cc(N2CCOCC2)c(OCC)cc1NC(=O)Cc1ccccc1`, in assay [1], the IC50 is 13.2 µM (active).
Consider `CC1=C(C(=O)N2CCCCCC2)C2(CCC(C)CC2)OC1=O` (stereo not drawn), for which the half-maximal activity concentration (AC50) is 0.0158 µM (inconclusive) in [7] and 28.2 µM (inconclusive) in [6].
For `CC(C)c1ccc(S(=O)(=O)N2CCC(C(=O)NCC3(N(C)C)CCCCC3)CC2)cc1`, the IC50 in assay [1] is 12.6 µM (active).
On the same count and under the same terms, with `CC(=O)OCCOCn1cnn2c(=O)c(Br)c(C)nc12` the figure was 13.5 µM (active).
Turning to `O=C1C=CC2OC(c3ccccc3)C(O)C2O1` (stereo not drawn), the GI50 in [12] is 1.56 µM (inactive); in assay [13], 1.16 µM (inactive); in [14], 4.6 µM (inactive).
For `CSCSCC(CO)NC(=O)/C=C\c1c(C)[nH]c(=O)[nH]c1=O` (stereo not drawn), in that order: 23.1 µM (inactive), 57.4 µM (inactive) and 11.1 µM (inactive).
On the same counts, the results for `COC(=O)[C@@H](O)[C@](O)(CCC(C)C)C(=O)O[C@@H]1C(OC)=C[C@]23CCCN2CCc2cc4c(cc2[C@H]13)OCO4` are 0.247 µM (active), 2.29 µM (inactive) and 0.682 µM (active).
For `N/C(=N\O)N/N=C\c1ccccc1O`, in that order: 1.66 µM (inactive), 1.54 µM (inactive) and 3.91 µM (inactive).
`CC(=O)OC1C=C(C=O)C(O)(C=O)C2(C)CCCC(C)(C)C12` (stereo not drawn): the GI50 in assay [12] is 0.142 µM (active); in assay [13], 0.322 µM (active); in [14], 1.36 µM (inactive).
For `O=C1C(Br)=CC2(C=C1Br)CCNC1=C2C2=NCCc3c[nH]c(c32)C1=O`, in that order: 0.0146 µM (active), 0.0162 µM (active) and 0.168 µM (active).
On the same counts, the results for `CCCCCCCCC1=CCC(CN(C)C)C1=O` (stereo not drawn) are 4.29 µM (inactive), 2.92 µM (inactive) and 17.6 µM (inactive).
On the same counts, the results for `CCSc1nc(COC(=O)NC)c(COC(=O)NC)n1C` are 67.6 µM (inactive), > 100 µM (inactive) and > 100 µM (inactive).
Regarding `CCN(CCCl)CCNc1c2ccccc2nc2ccc(OC)cc12`, the GI50 in assay [12] is 0.0757 µM (active); in [13] it was 0.29 µM (active); in assay [14], 0.647 µM (active).
On the same counts, the results for `CC(=O)N(C)c1ccc(Nc2cc(C)nc3ccc4nc[nH]c4c23)cc1` [ACODAZOLE HYDROCHLORIDE] are 4.5 µM (inactive), 37 µM (inactive) and 4.9 µM (inactive).
Turning to `CNC(=O)CSP(=S)(OC)OC` [DIMETHOATE], the IC50 in assay [9] and in [10] was > 66 µM (inactive) throughout.
As for `CC(C)=CCc1c(O)ccc2ccc(=O)oc12` [OSTHENOL], the GI50 in assay [12] is 42.7 µM (inactive); in assay [13], 50 µM (inactive); in assay [14], 59.7 µM (inactive).
As to `NNCCc1ccccc1` [PHENELZINE], the half-maximal activity concentration (AC50) in [6] was 158 nM (inconclusive) and 10 µM (inconclusive).

The values above are taken from ChEMBL document CHEMBL1201862, “PubChem BioAssay data set” (2004).
